Literature values as cited in patent publication US5650415A, “Quinoline compounds” (Sugen, Inc., priority 1995, dated 1997).

How the values were obtained:
[1] = test system: IGF-1R protein tyrosine kinase; conditions: Sepp-Lorenzino et al., Abstract, 1994; cited from earlier work
[2] = test system: human breast cancer cells; conditions: Sepp-Lorenzino et al., Abstract, 1994; cited from earlier work

Question: For `COC1C=CC=C(C)C(=O)NC2=CC(=O)C=C(C2=O)C(OC)C(C)CC(OC)C(OC)C(C)C=C(C)C1OC(N)=O` (centres unmarked) [Herbimycin A], which “inhibition of IGF-1R protein tyrosine kinase” value [1] is on record?
Answer: inhibit the IGF-1R protein tyrosine kinase

Question: And the “inhibition of cellular proliferation” value [2]?
Answer: inhibit the IGF-1R protein tyrosine kinase and cellular proliferation in human breast cancer cells
